Bounds are passed on as bounds.

Test system in the first data set: not given
Assay: not given
Settings: not given
Regarding `COc1cc(-c2ccccc2C(F)(F)F)c(Cl)cc1C(=O)N1Cc2ccc(C(=O)N(C)Cc3cccnc3)n2Cc2ccccc21` [Example 5, 10-{[6-Chloro-3-methoxy-2′-trifluoromethyl-[1,1′-biphenyl]-4-yl]carbonyl}-N-methyl-N-(pyridin-3-ylmethyl)-10,11-dihydro-5H-pyrrolo[2,1-c][1,4]benzodiazepine-3-carboxamide], the melting point is 124 to 126 °C.

The compound `COc1cc(-c2ccccc2Cl)c(Cl)cc1C(=O)N1Cc2ccc(C(=O)N(C)Cc3cccnc3)n2Cc2ccccc21` [Example 6, 10-[(2′,6-Dichloro-3-methoxy-[1,1′-biphenyl]-4-yl)carbonyl]-N-methyl-N-(pyridin-3-ylmethyl)-10,11-dihydro-5H-pyrrolo[2,1-c][1,4]benzodiazepine-3-carboxamide] returned a melting point of 196 to 198 °C.

The target in a further data set is T1, human vasopressin V1a receptor subtype (Homo sapiens, UniProt P37288).
T1 construct: host or cells: CHO cells, stably transfected (pZeoSV vector for the Thibonnier line)
T1 sequence (P37288 whole entry): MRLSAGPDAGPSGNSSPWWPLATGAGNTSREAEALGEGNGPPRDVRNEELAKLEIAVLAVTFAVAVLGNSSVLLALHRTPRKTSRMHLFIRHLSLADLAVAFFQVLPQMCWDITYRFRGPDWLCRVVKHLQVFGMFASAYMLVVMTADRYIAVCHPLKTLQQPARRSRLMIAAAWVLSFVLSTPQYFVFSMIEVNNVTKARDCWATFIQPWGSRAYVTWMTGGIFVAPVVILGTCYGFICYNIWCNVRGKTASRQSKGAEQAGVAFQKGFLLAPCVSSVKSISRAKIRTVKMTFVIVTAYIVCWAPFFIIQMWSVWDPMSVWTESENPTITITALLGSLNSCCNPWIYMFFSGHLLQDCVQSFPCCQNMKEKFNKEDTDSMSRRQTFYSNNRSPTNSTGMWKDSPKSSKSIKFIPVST
The data set is described as follows: Vasopressin binding in CHO cell membranes expressing human vasopressin V1a subtype receptors ([3H]Manning ligand radioligand binding). The settings on record: 100 nM. The essentials: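 Radioligand displacement: [3H]Manning ligand, added as 8 nM stock, binds human V1a receptor in CHO-cell membranes (25–50 μg/well), pH 7.4 Tris buffer with protease inhibitors, 60 min room temperature. Bound counts collected by filter harvesting; values are percent inhibition at stated concentration or nanomolar IC50.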
Take `COc1ccccc1-c1ccc(C(=O)N2Cc3ccc(C(=O)N4CCN(c5ccccn5)CC4)n3Cc3ccccc32)cc1OC` [Example 84, {10-[(2,2′-Dimethoxy-[1,1′-biphenyl]-4-yl)carbonyl]-10,11-dihydro-5H-pyrrolo[2,1-c][1,4]benzodiazepin-3-yl}[4-(2-pyridinyl)-1-piperazinyl]methanone]: the inhibition at 0.1 µM is 3%.

Turning to `COc1cccc(-c2ccc(C(=O)N3Cc4ccc(C(=O)N5CCN(c6ccccn6)CC5)n4Cc4ccccc43)cc2OC)c1` [Example 85, {10-[(2,3′-Dimethoxy-[1,1′-biphenyl]-4-yl)carbonyl]-10,11-dihydro-5H-pyrrolo[2,1-c][1,4]benzodiazepin-3-yl}[4-(2-pyridinyl)-1-piperazinyl]methanone], the inhibition at 0.1 µM was -5%.

In the case of `O=C(c1ccc2n1Cc1ccccc1N(C(=O)c1ccc(-c3cccc4ccccc34)cc1Cl)C2)N1CCN(c2ccccn2)CC1` [Example 86, {10-[2-Chloro-4-(naphthalen-1-yl)benzoyl]-10,11-dihydro-5H-pyrrolo[2,1-c][1,4]benzodiazepin-3-yl}[4-(2-pyridinyl)-1-piperazinyl]methanone], the inhibition at 0.1 µM was 1%.

Consider `Cc1cc(C(=O)N2Cc3ccc(C(=O)N4CCN(c5ccccn5)CC4)n3Cc3ccccc32)ccc1-c1ccccc1C(F)(F)F` [Example 87, (10-{[2-Methyl-2′-trifluoromethyl-[1,1′-biphenyl]-4-yl]carbonyl}-10,11-dihydro-5H-pyrrolo[2,1-c][1,4]benzodiazepin-3-yl)[4-(2-pyridinyl)-1-piperazinyl]methanone], for which the inhibition at 0.1 µM turned out to be 1%.

`COc1ccccc1-c1ccc(C(=O)N2Cc3ccc(C(=O)NCc4ccncc4)n3Cc3ccccc32)cc1C` [Example 88, 10-[(2′-Methoxy-2-methyl-[1,1′-biphenyl]-4-yl)carbonyl]-N-(4-pyridinylmethyl)-10,11-dihydro-5H-pyrrolo[2,1-c][1,4]benzodiazepine-3-carboxamide]: the inhibition at 0.1 µM amounted to 8%.

Take `Cc1ccccc1-c1ccc(C(=O)N2Cc3ccc(C(=O)NCc4ccncc4)n3Cc3ccccc32)cc1C` [Example 89, 10-[(2,2′-Dimethyl-[1,1′-biphenyl]-4-yl)carbonyl]-N-(4-pyridinylmethyl)-10,11-dihydro-5H-pyrrolo[2,1-c][1,4]benzodiazepine-3-carboxamide]: the inhibition at 0.1 µM stood at 29%.

For `COc1cccc(-c2ccc(C(=O)N3Cc4ccc(C(=O)NCc5ccncc5)n4Cc4ccccc43)cc2C)c1` [Example 90, 10-[(3′-Methoxy-2-methyl-[1,1′-biphenyl]-4-yl)carbonyl]-N-(4-pyridinylmethyl)-10,11-dihydro-5H-pyrrolo[2,1-c][1,4]benzodiazepine-3-carboxamide], the inhibition at 0.1 µM turned out to be 14%.

Turning to `COc1ccccc1-c1ccc(C(=O)N2Cc3ccc(C(=O)NCc4ccncc4)n3Cc3ccccc32)cc1` [Example 91, 10-[(2′-Methoxy-[1,1′-biphenyl]-4-yl)carbonyl]-N-(4-pyridinylmethyl)-10,11-dihydro-5H-pyrrolo[2,1-c][1,4]benzodiazepine-3-carboxamide], the inhibition at 0.1 µM is 11%.

Take `Cc1ccccc1-c1ccc(C(=O)N2Cc3ccc(C(=O)NCc4ccncc4)n3Cc3ccccc32)cc1` [Example 92, 10-[(2′-Methyl-[1,1′-biphenyl]-4-yl)carbonyl]-N-(4-pyridinylmethyl)-10,11-dihydro-5H-pyrrolo[2,1-c][1,4]benzodiazepine-3-carboxamide]: the inhibition at 0.1 µM turned out to be 21%.

With `COc1cc(C(=O)N2Cc3ccc(C(=O)NCc4ccncc4)n3Cc3ccccc32)ccc1-c1ccccc1C` [Example 93, 10-[(2-Methoxy-2′-methyl-[1,1′-biphenyl]-4-yl)carbonyl]-N-(4-pyridinylmethyl)-10,11-dihydro-5H-pyrrolo[2,1-c][1,4]benzodiazepine-3-carboxamide], the inhibition at 0.1 µM was 50%.

For `COc1cc(-c2ccccc2C)c(Cl)cc1C(=O)N1Cc2ccc(C(=O)NCc3ccncc3)n2Cc2ccccc21` [Example 94, 10-[(6-Chloro-3-methoxy-2′-methyl-[1,1′-biphenyl]-4-yl)carbonyl]-N-(4-pyridinylmethyl)-10,11-dihydro-5H-pyrrolo[2,1-c][1,4]benzodiazepine-3-carboxamide], the inhibition at 0.1 µM was 0%.

On to `COc1cccc(-c2cc(OC)c(C(=O)N3Cc4ccc(C(=O)NCc5ccncc5)n4Cc4ccccc43)cc2Cl)c1` [Example 95, 10-[(6-Chloro-3,3′-dimethoxy-[1,1′-biphenyl]-4-yl)carbonyl]-N-(4-pyridinylmethyl)-10,11-dihydro-5H-pyrrolo[2,1-c][1,4]benzodiazepine-3-carboxamide], for which the inhibition at 0.1 µM stood at 1%.

Turning to `COc1cc(C(=O)N2Cc3ccc(C(=O)NCc4ccncc4)n3Cc3ccccc32)ccc1-c1cccc2ccccc12` [Example 96, 10-[3-Methoxy-4-(naphthalen-1-yl)benzoyl]-N-(4-pyridinylmethyl)-10,11-dihydro-5H-pyrrolo[2,1-c][1,4]benzodiazepine-3-carboxamide], the inhibition at 0.1 µM worked out at 7%.

As to `COc1ccccc1-c1ccc(C(=O)N2Cc3ccc(C(=O)NCc4ccncc4)n3Cc3ccccc32)cc1OC` [Example 97, 10-[(2,2′-Dimethoxy-[1,1′-biphenyl]-4-yl)carbonyl]-N-(4-pyridinylmethyl)-10,11-dihydro-5H-pyrrolo[2,1-c][1,4]benzodiazepine-3-carboxamide], the inhibition at 0.1 µM is 4%.

Consider `O=C(NCc1ccncc1)c1ccc2n1Cc1ccccc1N(C(=O)c1ccc(-c3cccc4ccccc34)cc1Cl)C2` [Example 99, 10-[2-Chloro-4-(naphthalen-1-yl)benzoyl]-N-(4-pyridinylmethyl)-10,11-dihydro-5H-pyrrolo[2,1-c][1,4]benzodiazepine-3-carboxamide], for which the inhibition at 0.1 µM was -7%.

For `Cc1cc(C(=O)N2Cc3ccc(C(=O)NCc4ccncc4)n3Cc3ccccc32)ccc1-c1ccccc1C(F)(F)F` [Example 100, 10-{[2-Methyl-2′-trifluoromethyl-[1,1′-biphenyl]-4-yl]carbonyl}-N-(4-pyridinylmethyl)-10,11-dihydro-5H-pyrrolo[2,1-c][1,4]benzodiazepine-3-carboxamide], the inhibition at 0.1 µM was determined as 10%.

As to `COc1ccccc1-c1ccc(C(=O)N2Cc3ccc(C(=O)N(C)Cc4cccnc4)n3Cc3ccccc32)cc1` [Example 104, 10-[(2′-Methoxy-[1,1′-biphenyl]-4-yl)carbonyl]-N-methyl-N-(3-pyridinylmethyl)-10,11-dihydro-5H-pyrrolo[2,1-c][1,4]benzodiazepine-3-carboxamide], the inhibition at 0.1 µM turned out to be 32%.

For the compound `Cc1ccccc1-c1ccc(C(=O)N2Cc3ccc(C(=O)N(C)Cc4cccnc4)n3Cc3ccccc32)cc1` [Example 105, N-Methyl-10-[(2′-methyl-[1,1′-biphenyl]-4-yl)carbonyl]-N-(3-pyridinylmethyl)-10,11-dihydro-5H-pyrrolo[2,1-c][1,4]benzodiazepine-3-carboxamide], the inhibition at 0.1 µM is 0%.

The same data set, now with this note: value in parentheses.
With `COc1cc(-c2ccccc2C(F)(F)F)c(Cl)cc1C(=O)N1Cc2ccc(C(=O)N(C)Cc3cccnc3)n2Cc2ccccc21` [Example 5, 10-{[6-Chloro-3-methoxy-2′-trifluoromethyl-[1,1′-biphenyl]-4-yl]carbonyl}-N-methyl-N-(pyridin-3-ylmethyl)-10,11-dihydro-5H-pyrrolo[2,1-c][1,4]benzodiazepine-3-carboxamide], the IC50 was > 3000 nM.

`COc1cc(-c2ccccc2Cl)c(Cl)cc1C(=O)N1Cc2ccc(C(=O)N(C)Cc3cccnc3)n2Cc2ccccc21` [Example 6, 10-[(2′,6-Dichloro-3-methoxy-[1,1′-biphenyl]-4-yl)carbonyl]-N-methyl-N-(pyridin-3-ylmethyl)-10,11-dihydro-5H-pyrrolo[2,1-c][1,4]benzodiazepine-3-carboxamide]: the half-inhibitory concentration (IC50) amounted to 928 nM.

As to `COc1ccccc1-c1ccc(C(=O)N2Cc3ccc(C(=O)N(C)Cc4cccnc4)n3Cc3ccccc32)cc1C` [Example 101, 10-[(2′-Methoxy-2-methyl-[1,1′-biphenyl]-4-yl)carbonyl]-N-methyl-N-(3-pyridinylmethyl)-10,11-dihydro-5H-pyrrolo[2,1-c][1,4]benzodiazepine-3-carboxamide], the IC50 worked out at 355 nM.

On to `COc1cccc(-c2ccc(C(=O)N3Cc4ccc(C(=O)N(C)Cc5cccnc5)n4Cc4ccccc43)cc2C)c1` [Example 102, 10-[(3′-Methoxy-2-methyl-[1,1′-biphenyl]4-yl)carbonyl]-N-methyl-N-(3-pyridinyImethyl)-10,11-dihydro-5H-pyrrolo[2,1-c][1,4]benzodiazepine-3-carboxamide], for which the IC50 was determined as 275 nM.

In the case of `COc1ccccc1-c1ccc(C(=O)N2Cc3ccc(C(=O)N(C)Cc4cccnc4)n3Cc3ccccc32)cc1OC` [Example 103, 10-[(2,2′-Dimethoxy-[1,1′-biphenyl]-4-yl)carbonyl]-N-methyl-N-(3-pyridinylmethyl)-10,11-dihydro-5H-pyrrolo[2,1-c][1,4]benzodiazepine-3-carboxamide], the IC50 was determined as 449 nM.

As to `Cc1cc(C(=O)N2Cc3ccc(C(=O)N(C)Cc4cccnc4)n3Cc3ccccc32)ccc1-c1ccccc1C(F)(F)F` [Example 112, N-Methyl-10-{[2-methyl-2′-trifluoromethyl-[1,1′-biphenyl]-4-yl]carbonyl}-N-(3-pyridinylmethyl)-10,11-dihydro-5H-pyrrolo[2,1-c][1,4]benzodiazepine-3-carboxamide], the IC50 was determined as 1600 nM.

Take `COc1ccccc1-c1ccc(C(=O)N2Cc3ccc(C(=O)N4CCN(c5ccncc5)CC4)n3Cc3ccccc32)cc1C` [Example 113, {10-[(2′-Methoxy-2-methyl-[1,1′-biphenyl]-4-yl)carbonyl]-10,11-dihydro-5H-pyrrolo[2,1-c][1,4]benzodiazepin-3-yl}[4-(4-pyridinyl)-1-piperazinyl]methanone]: the IC50 came to 365 nM.

What is called melting point is the temperature, or range, at which the solid turns liquid. For orientation: inhibition means the drop in the measured response relative to a control, in per cent. By IC50 is commonly meant the concentration that inhibits the measured activity by half.

Values taken from patent US7064120B2, “Tricyclic pyridyl carboxamides and derivatives thereof tocolytic oxytocin receptor antagonists” (Wyeth, priority 2001, dated 2006).
